In patent US20230271932A1, “SMALL MOLECULE COVALENT ACTIVATORS OF UCP1” (Dana-Farber Cancer Institute, Inc., priority 2020, published 2023) one finds UCP-1-dependent respiration data, which are given here for 2 compounds.

Molecules are shown by their SMILES.

The target in the assay is T1, UCP1 (Mus musculus, UniProt P12242).
T1 construct: Cellular oxygen consumption and UCP1-rependent respiration of primary brown adipocytes; endogenous in cells; host or cells: primary brown adipocytes differentiated from the interscapular brown adipose stromal vascular fraction of 2- to 6-day-old pups
T1 sequence (P12242 1-307): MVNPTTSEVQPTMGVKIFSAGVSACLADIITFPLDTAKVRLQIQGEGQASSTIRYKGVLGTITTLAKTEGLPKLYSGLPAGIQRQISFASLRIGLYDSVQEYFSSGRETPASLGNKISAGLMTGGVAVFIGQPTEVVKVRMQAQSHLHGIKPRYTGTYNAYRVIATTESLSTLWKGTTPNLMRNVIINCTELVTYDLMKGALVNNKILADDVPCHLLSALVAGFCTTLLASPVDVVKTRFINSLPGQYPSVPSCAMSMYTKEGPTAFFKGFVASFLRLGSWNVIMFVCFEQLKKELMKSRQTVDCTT
Nature of the assay: UCP1-dependent respiration in primary brown adipocytes (Seahorse XF24 oxygen consumption). As to conditions: wild-type primary brown adipocytes; MYF compounds at 100 uM. The format is cell-based. The protocol:
Primary brown adipocyte preparation and differentiation. Interscapular brown adipose stromal vascular fraction was obtained from 2- to 6-day-old pups as described in PMID: 30022159. Interscapular brown adipose was dissected, washed in PBS, minced, and digested for 45 min at 37° C. in PBS containing 1.5 mg ml^−1 collagenase B, 123 mM NaCl, 5 mM KCl, 1.3 mM CaCl2, 5 mM glucose, 100 mM HEPES, and 4% essentially fatty-acid-free BSA. Tissue suspension was filtered through a 40 µm cell strainer and centrifuged at 600 g for 5 min to pellet the SVF. The cell pellet was resuspended in adipocyte culture medium and plated. Cells were maintained at 37° C. in 10% CO2. Primary brown pre-adipocytes were counted and plated in the evening, 12 h before differentiation at 15,000 cells per well of a seahorse plate. Pre-adipocyte plating was scaled according to surface area. […]
Direct measure of UCP1-dependent respiration in brown adipocytes. […] Basal respiration was determined to be the oxygen consumption in the presence of substrate (1 mM sodium pyruvate) alone. Following determination of basal respiration, MYF compounds at 100 uM or vehicle was added to the cells and the respiration response measured immediately. […] Maximal respiration capacity was determined following addition of DNP (2 mM). […]

On to `C=CC(=O)Nc1cc(-c2ccncc2)ccc1C(=O)OC` [CP-A16, methyl 2-acrylamido-4-(pyridin-4-yl)benzoate], for which the UCP-1-dependent respiration result is given as “activation”. The same measure for `CCC(=O)Nc1cc(-c2ccnnc2)sc1C(=O)OC` [ZNL-06-123]: “activation”.
